From patent US11602550B2, “Compositions comprising bacterial strains and use thereof in controlling pathogenic microorganisms” (priority 2018, dated 2023) come the findings set out here.

Holding throughout (experiment): Agar well diffusion antifungal assay against molds
Common to all, as to assay type: cell-based
Holding throughout (conditions): PDA plates, 25° C. 72 hours; NA: No antagonism was observed

For test [1], the system named is Penicillium chrysogenum Thom (ATCC MYA-4644). On the procedure: (§1) The agar well diffusion assay was performed to evaluate the antagonistic activity of B. amyloliquefaciens 298 against the growth of pathogenic bacteria including Escherichia coli ATCC 22922, Pseudomonas aeruginosa, B. cereus ATCC 27348, Staphylococcus aureus ATCC 11335, Salmonella Typhimurium ATCC 14028 and Listeria innocua ATCC 3586. […] Brain Heart Infusion (BHI) Agar was used for the antagonism against pathogenic microorganisms while the Potato Dextrose Agar (PDA) was used for evaluation against molds. Reference pathogens were prepared using BHI broth at 37° C. for 18 hours while B. amyloliquefaciens 298 was grown using LB broth at 37° C. for 18 hours. Molds were prepared using PDA at 25° C. with 85% HR for 7 days. Mold spores, pathogens and B. amyloliquefaciens 298 were harvested and resuspended in PBS. Pathogens and B. amyloliquefaciens 298 were adjusted to an optical density of 0.2 and 100 uL of pathogen suspended in PBS was spread on BHI agar plates. The same amount of mold spore suspension was inoculated on PDA. Wells were made in all the plates and 20 μL of B. amyloliquefaciens 298 suspensions were inoculated in the wells while the BHI plates were incubated at 37° C. for 24 hours and PDA plates at 25° C. for 72 hours.
(§2) The agar well diffusion assay was performed to evaluate the antagonistic activity of B. subtilis 3 against the growth of pathogenic bacteria including Escherichia coli ATCC 25922, Pseudomonas aeruginosa ATCC 27853, B. cereus ATCC 27348, Staphylococcus aureus ATCC 6538, Salmonella Typhymurium ATCC 14028 and Listeria inocua ATCC 33090. […] Brain Heart Infusion (BHI) Agar was used for the antagonism against pathogenic microorganisms while the Potato Dextrose Agar (PDA) was used for evaluation against molds. Reference pathogens were prepared using BHI broth 37° C. for 18 hours, while B. subtilis 3 was grown using LB broth at 37° C. for 18 hours. Molds were prepared using PDA at 25° C. with 85% HR for 7 days. Mold spores, pathogens and B. subtilis 3 were harvested and resuspended in PBS. […] The same amount of mold spore suspension was inoculated on PDA. […]

The subject of test [2] is Alternaria alternata (Fries) Keissler (ATCC MYA-4642). The procedure:
as §1, §2

In test [3] the test system is Cladosporium sphaerospermum Penzig (ATCC MYA-4645). On the procedure:
as §1, §2

On to `OO` [Hydrogen peroxide 10%, Hydrogen peroxide], for which the “Inhibition zone, Penicillium chrysogenum Thom (ATCC MYA-4644)” value in test [1] is recorded as 10 mm. In addition, the “Inhibition zone, Alternaria alternata (Fries) Keissler (ATCC MYA-4642)” value in test [2] stood at 8 mm. Moreover, the “Inhibition zone, Cladosporium sphaerospermum Penzig (ATCC MYA-4645)” value in test [3] worked out at 12 mm.
